# Assay results as given in paper PMC9722314, “Solubility Enhancement of a Poorly Water-Soluble Drug Using Hydrotropy and Mixed Hydrotropy-Based Solid Dispersion Techniques” (Advances in Pharmacological and Pharmaceutical Sciences, 2022).
# Values joined by “and” are separate entries in the source; they are usually repeats but may differ in a detail not shown here. Equal values may be shown once.
# Key:
# [1] = Equilibrium solubility of rosuvastatin calcium in single hydrotropic agent solutions; assay type: physicochemical; conditions: for solubility thermodynamic at 24 h: aqueous hydrotropic agent solution, 37 °C, aqueous with cosolvent or surfactant or cyclodextrin, thermodynamic from solid
# Description: At first, equilibrium solubility investigations were conducted with a variety of hydrotropic agents. […] In a 10 ml vial, 5 ml of a specific hydrotropic agent solution was accurately measured, and an excess of rosuvastatin calcium was added and physically agitated for 30 minutes until a saturated solution was generated. To achieve equilibrium solubility, the vial was shaken on a mechanical isothermal bath shaker at 37 ± 0.5°C for 24 hours, and the solution was allowed to equilibrate for another 24 hours. The resulting solution was filtered with a grade of 0.45 μm syringe filter. A portion of the sample was diluted with distilled water and examined at 242 nm using a UV-visibledouble-beam spectrophotometer against the respective solvent as a blank. The equilibrium solubility study was conducted in triplicate. The following formula was used for the calculation of solubility enhancement ratios:(1) Enhancement ratio=Solubility of drug in hydrotropic solution/Solubility of drug in water. Equation (1) is used for the calculation of the solubility enhancement ratio.
# [2] = Equilibrium solubility of rosuvastatin calcium in mixed hydrotropic solutions; assay type: physicochemical; conditions: total 40%; for solubility at 24 h: mixed hydrotropic agent solution in distilled water; for solubility at 24 h / solubility: 37 °C, aqueous with cosolvent or surfactant or cyclodextrin, thermodynamic from solid; for solubility: mixed hydrotropic solution in distilled water
# Description: In order to create a clear solution, two to three hydrotropic agents were mixed and dissolved in distilled water. Next, an excessive amount of calcium rosuvastatin was added, and the mixture was shaken until no more rosuvastatin was dissolved. The solutions are mechanically shaken on a mechanical isothermal bath shaker at 37 ± 0.5°C for 24 hours, followed by another 24 hours of equilibration. A grade of 0.45 μm syringe filter was used to filter the resultant solution. Using a UV-visibledouble-beam spectrophotometer, a portion of the material was diluted with distilled water and analyzed at 242 nm. The equilibrium solubility studies were conducted in triplicate. To obtain optimal solubility of rosuvastatin calcium in water, a ratio of three hydrotropic agents was adjusted.
# [3] = Saturated solubility study in distilled water (pure drug, solid dispersions, physical mixture); assay type: physicochemical; conditions: 37 °C, thermodynamic from solid, 37 ± 0.5°C, 24 h shaking + 24 h equilibration
# Description: To assess the solubility of pure rosuvastatin calcium, produced solid dispersions, and physical mixtures in distilled water, saturation solubility tests were performed. The saturation solubility tests were performed in triplicate according to Higuchi and Connors' technique. The excess of solid dispersions and physical mixtures were added to vials containing 10 ml of distilled water. The vials were shaken for 24 hours on a mechanical isothermal bath shaker at 37 ± 0.5°C and then left alone for another 24 hours to equilibrate. A syringe filter with a grade of 0.45 μm was used to filter the drug-containing solution. An aliquot of the filtrate was suitably diluted with the corresponding reagent, and the dilution was analyzed on a UV-visibledouble-beam spectrophotometer [18].
# [4] = In vitro dissolution rate study, USP apparatus I (basket); assay type: physicochemical; conditions: within 45 min; 900 ml 0.05 M citrate buffer pH 6.6, 50 rpm, 37°C, 10 mg drug; listed as pure drug
# Description: In vitro dissolution of rosuvastatin calcium solid dispersions, physical mixtures, and the pure drug was investigated using a basket stirrer in a USP dissolution apparatus (Industrial Lab) (USP apparatus I method). The dissolution medium was 900 ml of 0.05 M citrate buffer at pH 6.6, which is recommended by the US Food and Drug Administration for dissolution studies with rosuvastatin calcium. The rotation speed was 50 rpm, and the temperature was kept constant at 37 ± 0.5°C during the experiment. Each test employed solid dispersions containing 10 mg of rosuvastatin calcium. At known intervals of time of 5, 10, 15, 20, 25, 30, and 45 minutes, 5 ml of the dissolution medium sample was removed and refilled with the same quantity of medium to maintain a consistent volume throughout the experiment. The withdrawn material was filtered using a 0.45 μm syringe filter. After dilution with a 0.05 M citrate buffer solution, the samples were spectrophotometrically analyzed by detecting the absorbance at 241 nm. […] The dissolution studies of each formulation were conducted in triplicate.
# [5] = due to limited water solubility; cited from earlier work
# [6] = parameters: method as in earlier work; conditions: sodium salicylate (2.0 M); ref 18 (Nainwal et al.); cited from earlier work
# [7] = cited from earlier work
smiles,measurement,setting,value
"CC(C)c1nc(N(C)S(C)(=O)=O)nc(-c2ccc(F)cc2)c1/C=C/[C@@H](O)C[C@@H](O)CC(=O)O [rosuvastatin calcium, Rosuvastatin calcium]",solubility thermodynamic at 24 h,[1]; citric acid 10% w/v aqueous solution,0.45 ± 0.003 mg/mL
same,solubility thermodynamic at 24 h,[1]; citric acid 20% w/v aqueous solution,0.75 ± 0.05 mg/mL
same,solubility thermodynamic at 24 h,[1]; citric acid 30% w/v aqueous solution,0.78 ± 0.1 mg/mL
same,solubility thermodynamic at 24 h,[1]; citric acid 40% w/v aqueous solution,0.93 ± 0.17 mg/mL
same,solubility thermodynamic at 24 h,[1]; mannitol 10% w/v aqueous solution,0.49 ± 0.13 mg/mL
same,solubility thermodynamic at 24 h,[1]; mannitol 20% w/v aqueous solution,0.599 ± 0.09 mg/mL
same,solubility thermodynamic at 24 h,[1]; mannitol 30% w/v aqueous solution,0.66 ± 0.1 mg/mL
same,solubility thermodynamic at 24 h,[1]; mannitol 40% w/v aqueous solution,0.89 ± 0.028 mg/mL
same,solubility thermodynamic at 24 h,[1]; sodium benzoate 10% w/v aqueous solution,22.9 ± 1.46 mg/mL
same,solubility thermodynamic at 24 h,[1]; sodium benzoate 20% w/v aqueous solution,39 ± 4.53 mg/mL
same,solubility thermodynamic at 24 h,[1]; sodium benzoate 30% w/v aqueous solution,103 ± 14.1 mg/mL
same,solubility thermodynamic at 24 h,[1]; sodium benzoate 40% w/v aqueous solution,119 ± 13.8 mg/mL
same,solubility thermodynamic at 24 h,[1]; sodium salicylate 10% w/v aqueous solution,27 ± 1.04 mg/mL
same,solubility thermodynamic at 24 h,[1]; sodium salicylate 20% w/v aqueous solution,49.9 ± 2.58 mg/mL
same,solubility thermodynamic at 24 h,[1]; sodium salicylate 30% w/v aqueous solution,97.3 ± 4.13 mg/mL
same,solubility thermodynamic at 24 h,[1]; sodium salicylate 40% w/v aqueous solution,125 ± 1.8 mg/mL
same,solubility thermodynamic at 24 h,[1]; urea 10% w/v aqueous solution,0.85 ± 0.07 mg/mL
same,solubility thermodynamic at 24 h,[1]; urea 20% w/v aqueous solution,1.06 ± 0.08 mg/mL
same,solubility thermodynamic at 24 h,[1]; urea 30% w/v aqueous solution,1.13 ± 0.16 mg/mL
same,solubility thermodynamic at 24 h,[1]; urea 40% w/v aqueous solution,1.36 ± 0.1 mg/mL
same,Solubility enhancement ratio,[1]; citric acid solution vs water (fits the 40% w/v value),2.192
same,Solubility enhancement ratio,[1]; mannitol solution vs water (fits the 40% w/v value),2.085
same,Solubility enhancement ratio,[1]; sodium benzoate solution vs water (fits the 40% w/v value),277.556
same,Solubility enhancement ratio,"[1]; sodium salicylate solution (40%) vs water, listed as Rosuvastatin calcium",292.961
same,Solubility enhancement ratio,"[1]; sodium salicylate solution (40%) vs water, listed as rosuvastatin",292.9
same,Solubility enhancement ratio,[1]; urea solution vs water (fits the 40% w/v value),3.198
same,Solubility enhancement ratio,"[2]; SS : C 20 : 20 % w/v, vs water",76.015
same,Solubility enhancement ratio,"[2]; SS : M 20 : 20 % w/v, vs water",128.66
same,Solubility enhancement ratio,"[2]; SS : SB 5 : 35 % w/v, vs water",189.78
same,Solubility enhancement ratio,"[2]; SS : SB 10 : 30 % w/v, vs water",120.01
same,Solubility enhancement ratio,"[2]; SS : SB 15 : 25 % w/v, vs water",389.37
same,Solubility enhancement ratio,"[2]; SS : SB 20 : 20 % w/v, vs water",421.02
same,Solubility enhancement ratio,"[2]; SS : SB : C, each 13.333 % w/v, vs water",112.005
same,Solubility enhancement ratio,"[2]; SS : SB : M, each 13.333 % w/v, vs water",172.722
same,Solubility enhancement ratio,"[2]; SS : SB : U 10 : 15 : 15 % w/v, vs water",200.265
same,Solubility enhancement ratio,"[2]; SS : SB : U 20 : 05 : 15 % w/v, vs water",210.314
same,Solubility enhancement ratio,"[2]; SS : SB : U 20 : 10 : 10 % w/v, vs water",235.414
same,Solubility enhancement ratio,"[2]; SS : SB : U 20 : 15 : 05 % w/v, vs water",301.328
same,Solubility enhancement ratio,"[2]; SS : SB : U, each 13.333 % w/v, vs distilled water",449.137
same,Solubility enhancement ratio,"[2]; SS : SB : U, each 13.333 % w/v, vs distilled water, listed as rosuvastatin",449
same,Solubility enhancement ratio,"[2]; SS : U 20 : 20 % w/v, vs water",181.65
same,solubility at 24 h,[2]; SS : C 20 : 20 % w/v,32.5 ± 0.52 mg/mL
same,solubility at 24 h,[2]; SS : M 20 : 20 % w/v,55 ± 2.72 mg/mL
same,solubility at 24 h,[2]; SS : SB 5 : 35 % w/v,81.1 ± 1.54 mg/mL
same,solubility at 24 h,[2]; SS : SB 10 : 30 % w/v,51.3 ± 3.38 mg/mL
same,solubility at 24 h,[2]; SS : SB 20 : 20 % w/v,180 ± 40.1 mg/mL
same,solubility at 24 h,"[2]; SS : SB : U, each 13.333 % w/v",192 ± 38.6 mg/mL
same,solubility at 24 h,[2]; SS : U 20 : 20 % w/v,77.6 ± 2.31 mg/mL
same,solubility,[2]; SS : SB 15 : 25 % w/v,166 ± 7.24 mg/mL
same,solubility,"[2]; SS : SB : C, each 13.333 % w/v",47.9 ± 1.43 mg/mL
same,solubility,"[2]; SS : SB : M, each 13.333 % w/v",73.8 ± 1.49 mg/mL
same,solubility,[2]; SS : SB : U 10 : 15 : 15 % w/v,85.6 ± 1.74 mg/mL
same,solubility,[2]; SS : SB : U 20 : 05 : 15 % w/v,89.9 ± 5.18 mg/mL
same,solubility,[2]; SS : SB : U 20 : 10 : 10 % w/v,101 ± 12.7 mg/mL
same,solubility,[2]; SS : SB : U 20 : 15 : 05 % w/v,129 ± 4.02 mg/mL
same,solubility,"[2]; SS : SB : U, each 13.333 % w/v",192 ± 38.6 mg/mL
same,solubility,[3],0.427 ± 0.005 mg/mL
same,In vitro drug release,[4],40.73 ± 4.44% and 40.73%
same,Biopharmaceutics classification system (BCS) class,[5],class II
same,Increase in solubility,[6],55 folds
same,t1/2,[7],19 h
same,Oral bioavailability,[7]; oral,roughly 20%
